Experimental data taken from PMC7768756, “BAM1/2 receptor kinase signaling drives CLE peptide-mediated formative cell divisions in Arabidopsis roots” (Proceedings of the National Academy of Sciences of the …, 2020).
Like-named read-outs stand apart in the source and are kept apart here. Non-standard residues stand in square brackets, D forms with d. Residues, ends and D or L forms follow the SMILES beside them. No end group written: not given here. Hyp = O=C(O)[C@@H]1C[C@@H](O)CN1

T1: BAM1 extracellular domain (Arabidopsis thaliana, UniProt O49545)
T1 construct: Drosophila BiP secretion signal peptide (N); StrepII (C, cleaved yes); 10xHis (C, cleaved yes); made in house; host or cells: Trichoplusia ni (strain Tnao38) insect cells, baculovirus (modified pFastBac)
T1 sequence (O49545 20-637): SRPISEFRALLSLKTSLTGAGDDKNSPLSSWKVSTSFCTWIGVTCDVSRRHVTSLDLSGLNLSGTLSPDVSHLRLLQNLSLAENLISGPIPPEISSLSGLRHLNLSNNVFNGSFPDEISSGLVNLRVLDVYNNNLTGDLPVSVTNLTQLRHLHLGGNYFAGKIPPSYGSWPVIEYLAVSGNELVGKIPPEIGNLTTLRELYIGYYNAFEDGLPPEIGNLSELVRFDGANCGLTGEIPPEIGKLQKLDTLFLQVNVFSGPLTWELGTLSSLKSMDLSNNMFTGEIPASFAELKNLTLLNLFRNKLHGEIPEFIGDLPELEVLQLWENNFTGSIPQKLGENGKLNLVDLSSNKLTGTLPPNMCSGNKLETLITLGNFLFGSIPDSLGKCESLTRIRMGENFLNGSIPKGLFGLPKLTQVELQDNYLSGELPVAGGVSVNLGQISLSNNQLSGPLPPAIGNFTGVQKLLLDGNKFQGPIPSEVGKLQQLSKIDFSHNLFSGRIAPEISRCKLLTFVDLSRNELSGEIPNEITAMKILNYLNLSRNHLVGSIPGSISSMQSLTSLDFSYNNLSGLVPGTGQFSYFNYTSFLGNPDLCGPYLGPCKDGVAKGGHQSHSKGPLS

T2: BAM1 extracellular domain (BARELY ANY MERISTEM1 receptor kinase, residues 20 to 637) (Arabidopsis, UniProt O49545 20-637, biotin (by biotin ligase BirA))
T2 construct: synthetic gene, codon-optimised for Trichoplusia ni; Expressed behind the Drosophila BiP secretion signal peptide in a modified pFastBac vector; the StrepII and 10x His tags were removed with TEV protease, the Avi-tag is not cleavable and was used to capture the protein on streptavidin; also called BAM1 ectodomain; biotinylated BAM1; source: Trichoplusia ni (strain Tnao38) cells, secreted, …
T2 sequence (looked up): T1 sequence (O49545 20-637)

T3: BAM1 extracellular domain (BARELY ANY MERISTEM1 receptor kinase, residues 20 to 637) (Arabidopsis, UniProt O49545 20-637, biotin (by biotin ligase BirA))
T3 chain: T1 sequence (O49545 20-637)

B1: CLE16 dodecapeptide (CLE16p) (peptide, UniProt Q8S8M2 92-103, looked up)
peptide: RLVHTGPNPLHN
modifications: ends and bridges not checked
notes: CLE16p, the active dodecapeptide released from the CLE16 propeptide, Arabidopsis; source: synthetic peptide (>90% purity, Biomatik)
B2: CLE13 dodecapeptide (CLE13p) (peptide, UniProt Q6NMF0 96-107, looked up)
peptide: RLVPSGPNPLHH
modifications: ends and bridges not checked
notes: CLE13p, the active dodecapeptide released from the CLE13 propeptide, Arabidopsis; source: synthetic peptide (>90% purity, Biomatik)

What was measured:
[1] = molecular target: T1, BAM1 extracellular domain; assay: Grating-coupled interferometry (GCI) binding kinetics of CLE peptides versus the BAM1 ectodomain; conditions: for koff: pH 5, read-out: koff, dissociation rate constant; for kon: pH 5, read-out: kon, association rate constant
Description: The coding sequence of BAM1 (residues 20 to 637) was synthesized (GeneArt) with codons optimized for expression in Trichoplusia ni and cloned in a modified pFastBac vector (Geneva Biotech), harboring the Drosophila BiP secretion signal peptide and a TEV (tobacco etch virus protease) cleavable C-terminal StrepII, 10× His tag and a noncleavable Avi-tag ([41], [42]). T. ni (strain Tnao38) ([43]) cells were infected with a multiplicity of infection (MOI) of 1 at a density of 2 × 10^6 cells mL^−1 and incubated 26 h at 28 °C and 48 h at 22 °C. The secreted protein was purified from the supernatant by Ni^2+ (HisTrap Excel; GE Healthcare; equilibrated in 50 mM KPi pH 7.6, 250 mM NaCl, 1 mM 2-mercaptoethanol) and StrepII (Strep-Tactin XT Superflow high affinity chromatography: IBA; equilibrated in 20 mM Tris pH 8.0, 250 mM NaCl, 1 mM ethylenediaminetetraacetic acid) affinity chromatography. The tag was cleaved with His-tagged TEV protease at 4 °C overnight and removed by Ni^2+ affinity chromatography. Proteins were then further purified by size-exclusion chromatography on a Superdex 200 increase 10/300 GL column (GE Healthcare), equilibrated in 20 mM sodium citrate pH 5.0, 250 mM NaCl.
BAM1 protein (20 µM) was biotinylated with biotin ligase BirA (2 µM) ([42]) for 1 h at 25 °C, in a volume of 200 µL; 25 mM Tris pH 8, 150 mM NaCl, 5 mM MgCl2, 2 mM 2-mercaptoethanol, 0.15 mM biotin, 2 mM ATP, and followed by size-exclusion chromatography to purify the biotinylated protein.
Grating-coupled interferometry (GCI) experiments were derived by the Creoptix WAVE system (Creoptix). All experiments were performed on 4PCP WAVE chips (quasiplanar polycarboxylate surface; Creoptix). Borate buffer (100 mM sodium borate pH 9.0, 1 M NaCl; Xantec) was used for chip conditioning and streptavidin (Sigma) was immobilized on the chip surface with standard amine coupling; 7 min activation [1:1 mix of 400 mM N-(3-dimethylaminopropyl)-N′-ethylcarbodiimide hydrochloride and 100 mM N-hydroxysuccinimide] (Xantec), followed by injection of streptavidin (30 µg mL^−1) in 10 mM sodium acetate pH 5.0 (Sigma) until the desired density was reached, passivation of the surface (0.5% bovine serum albumin [Roche] in 10 mM sodium acetate pH 5.0) and final quenching with 1 M ethanolamine pH 8.0 for 7 min (Xantec). Then, biotinylated BAM1 (80 µg mL^−1) was captured on the chip surface. All kinetic analyses were performed at 25 °C with a 1:2 dilution series from 100 nM for CLE9 or 10 µM for the other peptides in 20 mM citrate pH 5.0, 250 mM NaCl, 0.01% Tween 20. Blank injections were used for double referencing and a dimethyl sulfoxide (DMSO) calibration curve for bulk correction. Analysis and correction of the obtained data were performed using the Creoptix WAVE control software (correction applied: X and Y offset; DMSO calibration; double referencing). Mass transport binding models with bulk correction were used to fit all experiments.

CYCD6;1 expression = assay: CYCLIND6;1p::GFP reporter expression in roots after exogenous CLE peptide treatment; format: in vivo, Arabidopsis; conditions: Col-0 roots; 0.1 μM CLEp for 48 h from 3 dag, imaged 5 dag
Description: Seeds were surface sterilized with 70% ethanol and 0.1% Triton X-100 for 10 min, rinsed three times with 70% ethanol, and plated onto 0.5× Murashige and Skoog (MS) (pH 5.7) (Research Products International) with 8 g/L Phytoagar (Research Products International) and stratified at 4 °C for 2 d. Following stratification, seeds were germinated in a continuous light growth chamber at 22 °C to 24 °C. For peptide-treated plants, sterilized seeds were stratified and germinated on 0.5× MS plates. At 3 d after germination (dag), seedlings were transferred to either 0.5× MS plates or 0.5× MS plates supplemented with 0.1 μM CLEp for 48 h. Roots were imaged 5 dag as described in the figure legends. All synthetic peptides (>90% purity, Biomatik) (SI Appendix, Table S1) were dissolved in sterile dH2O as recommended. For treatment with dexamethasone (Dex; Sigma), seedlings were stratified and germinated on 0.5× MS plates supplemented with 10 μM Dex for 3 d before imaging.
Laser scanning confocal microscopy of roots was performed using either a C-Apochromat 40×/1.20 W Korr objective on a Zeiss laser scanning microscopy (LSM) 710 or an EC Plan-Neofluar 40×/1.30 oil differential interference contrast (DIC) M27 objective on a Zeiss LSM 880. Roots were examined by staining with 10 μM propidium iodide (PI) (Sigma-Aldrich). For images in Figs. 2B and 4 A and C and SI Appendix, Figs. S1D and S2B, seedlings were fixed in 4% paraformaldehyde in phosphate-buffered saline (PBS) for 45 min, rinsed in PBS, and cleared in ClearSee solution ([38]) overnight. Fixed seedlings were incubated in 0.2% Calcofluor white (Sigma-Aldrich) for 30 min and transferred to fresh ClearSee solution 2 to 24 h before imaging. Laser line excitations and emissions are as follows: Calcofluor white (405 nm; 410 to 551 nm), GFP (488 nm; 492 to 551 nm), YFP (514 nm; 519 to 564 nm), mCherry (561 nm; 566 to 606 nm), and PI (561 nm; 566 to 682 nm). Histological sectioning of Col-0 and bam1/2/3 roots 6 dag were prepared as previously described ([39]).

[2] = molecular target: T2, BAM1 extracellular domain (BARELY ANY …); assay: grating-coupled interferometry (GCI); biotinylated BAM1 captured on streptavidin on a 4PCP WAVE chip (Creoptix WAVE); peptides as analyte, 1:2 dilution series from 10 µM; 25 °C; 20 mM citrate pH 5.0, 250 mM NaCl, 0.01% Tween 20; one-to-one binding model with mass transport; conditions: both partners purified
[3] = molecular target: T3, BAM1 extracellular domain (BARELY ANY …)

Molecule | koff [1] [s⁻¹] | kon [1] [M⁻¹ s⁻¹] | further results
CC(C)C[C@H](NC(=O)[C@@H](N)CCCNC(=N)N)C(=O)N[C@H](C(=O)N1C[C@H](O)C[C@H]1C(=O)N[C@@H](CO)C(=O)NCC(=O)N1C[C@H](O)C[C@H]1C(=O)N[C@@H](CC(N)=O)C(=O)N1CCC[C@H]1C(=O)N[C@@H](CC(C)C)C(=O)N[C@@H](Cc1c[nH]cn1)C(=O)N[C@@H](CC(N)=O)C(=O)O)C(C)C [CLE9, reference compound] (H-RLV[Hyp]SG[Hyp]NPLHN-OH; N-terminus and C-terminus assumed) | 0.024 | 3.76e+07 | –
RLSPGGPDPQHH [CLE2p, synthesized root expressed CLE dodecapeptide, locus At4g18510] | – | – | Upregulation of CYCD6 observed? (CYCLIND6;1p::GFP response) (CYCD6;1 expression): No
RLSPGGPDPRHH [CLE1p, synthesized root expressed CLE dodecapeptide, locus At1g73165] | – | – | Upregulation of CYCD6 observed? (CYCLIND6;1p::GFP response) (CYCD6;1 expression): No
RLVHTGPNPLHN [CLE16p] | 1.05 | 1.51e+08 | –
RLVPSGPNPLHH [CLE13p] | 0.603 | 5.88e+07 | –
RRVPSGPNPLHH [CLE12p, synthesized root expressed CLE dodecapeptide, locus At1g68795] | – | – | Upregulation of CYCD6 observed? (CYCLIND6;1p::GFP response) (CYCD6;1 expression): Yes
RTVPSGPDPLHH [CLV3, reference compound] | 0.549 | 38200 | –
B1 | – | – | Kd [2]: 6.9 nM
RLVPSGPNPLHN [CLE9] | – | – | Kd [3]: 0.6 nM
B2 | – | – | Kd [2]: 10 nM
RTVPSGPDPLHH [CLV3] | – | – | Kd [3]: 14000 nM
